Experimental data from PubChem BioAssay AID256 (DTP/NCI, 2004).
Values joined by “and” are separate entries in the source; they are usually repeats but may differ in a detail not shown here. Equal entries are not always repeated. Inconclusive results and toxic doses are left out. How the source made its calls: active means survival T/C of 150% or more; inactive means T/C below 125% in these data.

Test system: CD2F1 mice, L1210 leukemia ip, survival T/C
Assay: NCI In Vivo Anticancer Drug Screen. Data for tumor model L1210 Leukemia (intraperitoneal) in CD2F1 (CDF1) mice
Conditions: higher = longer survival
How it was run: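 Antitumor effect is scored in animals hosting a serially transplanted tumor. Values compare compound-dosed animals against vehicle-only controls as a simple quotient.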

Measured: T/C

C/C(=N\N=C(/[Se])N1CC2CCC(CC2)C1)c1ccccn1
inactive: endpoint: median survival time, dose: 0.75 mg/kg/injection, schedule: Q01DX009 (ip), vehicle: Klucel (hydroxypropylcellulose) (HPC) 101 % of control | endpoint: median survival time, dose: 1.5 mg/kg/injection, schedule: Q01DX009 (ip), vehicle: Klucel (hydroxypropylcellulose) (HPC) 103 % of control | endpoint: median survival time, dose: 1.56 mg/kg/injection, schedule: Q01DX009 (ip), vehicle: Klucel (hydroxypropylcellulose) (HPC) 93 % of control and 101 % of control | endpoint: median survival time, dose: 3.0 mg/kg/injection, schedule: Q01DX009 (ip), vehicle: Klucel (hydroxypropylcellulose) (HPC) 102 % of control | endpoint: median survival time, dose: 3.12 mg/kg/injection, schedule: Q01DX009 (ip), vehicle: Klucel (hydroxypropylcellulose) (HPC) 97 % of control and 110 % of control | endpoint: median survival time, dose: 6.0 mg/kg/injection, schedule: Q01DX009 (ip), vehicle: Klucel (hydroxypropylcellulose) (HPC) 104 % of control | endpoint: median survival time, dose: 6.25 mg/kg/injection, schedule: Q01DX009 (ip), vehicle: Klucel (hydroxypropylcellulose) (HPC) 86 % of control | endpoint: median survival time, dose: 12.0 mg/kg/injection, schedule: Q01DX009 (ip), vehicle: Klucel (hydroxypropylcellulose) (HPC) 102 % of control | endpoint: median survival time, dose: 12.5 mg/kg/injection, schedule: Q01DX009 (ip), vehicle: Klucel (hydroxypropylcellulose) (HPC) 109 % of control | endpoint: median survival time, dose: 25.0 mg/kg/injection, schedule: Q01DX009 (ip), vehicle: Klucel (hydroxypropylcellulose) (HPC) 89 % of control

C=C(C)C(=O)OC1C/C(CO)=C\C(O)C/C(C)=C/C2OC(=O)C(=C)C21 (configuration not stated)
inactive: endpoint: mean survival time, dose: 1.25 mg/kg/injection, schedule: Q01DX009 (ip), vehicle: saline + alcohol 103 % of control and 104 % of control | endpoint: mean survival time, dose: 2.5 mg/kg/injection, schedule: Q01DX009 (ip), vehicle: saline + alcohol 116 % of control and 101 % of control | endpoint: mean survival time, dose: 3.75 mg/kg/injection, schedule: Q01DX009 (ip), vehicle: saline + alcohol 114 % of control | endpoint: mean survival time, dose: 5.0 mg/kg/injection, schedule: Q01DX009 (ip), vehicle: saline + alcohol 113 % of control and 123 % of control | endpoint: mean survival time, dose: 7.5 mg/kg/injection, schedule: Q01DX009 (ip), vehicle: saline + alcohol 114 % of control | endpoint: mean survival time, dose: 10.0 mg/kg/injection, schedule: Q01DX009 (ip), vehicle: saline + alcohol 110 % of control | endpoint: mean survival time, dose: 15.0 mg/kg/injection, schedule: Q01DX009 (ip), vehicle: saline + alcohol 106 % of control | endpoint: mean survival time, dose: 20.0 mg/kg/injection, schedule: Q01DX009 (ip), vehicle: saline + alcohol 122 % of control | endpoint: mean survival time, dose: 30.0 mg/kg/injection, schedule: Q01DX009 (ip), vehicle: saline + alcohol 120 % of control | endpoint: mean survival time, dose: 40.0 mg/kg/injection, schedule: Q01DX009 (ip), vehicle: saline + alcohol 97 % of control

CCC(=O)OCC1OC(n2ccc(O)cc2=O)C(O)C1O (configuration not stated)
active: endpoint: median survival time, dose: 44.0 mg/kg/injection, schedule: Q01DX009 (ip), vehicle: saline + alcohol 178 % of control | endpoint: median survival time, dose: 67.0 mg/kg/injection, schedule: Q01DX009 (ip), vehicle: saline + alcohol 174 % of control | endpoint: median survival time, dose: 100.0 mg/kg/injection, schedule: Q01DX009 (ip), vehicle: saline + alcohol 174 % of control | endpoint: median survival time, dose: 150.0 mg/kg/injection, schedule: Q01DX009 (ip), vehicle: saline + alcohol 153 % of control

CC(=O)OCC1OC(n2cnc3c(=S)nc(N)[nH]c32)CC1OC(C)=O (configuration not stated)
inactive: endpoint: mean survival time, dose: 0.63 mg/kg/injection, schedule: Q01DX005 (ip), vehicle: saline with Tween-80 101 % of control | endpoint: mean survival time, dose: 1.25 mg/kg/injection, schedule: Q01DX005 (ip), vehicle: saline with Tween-80 117 % of control
active: endpoint: mean survival time, dose: 20.0 mg/kg/injection, schedule: Q01DX005 (ip), vehicle: saline with Tween-80 156 % of control

COc1ccc2c(c1)-c1nn(CCCN(C)C)c3ccc([N+](=O)[O-])c(c13)N2
active: endpoint: median survival time, dose: 3.12 mg/kg/injection, schedule: Q01DX005 (ip), vehicle: water 152 % of control | endpoint: median survival time, dose: 3.12 mg/kg/injection, schedule: Q01DX009 (ip), vehicle: water 168 % of control | endpoint: median survival time, dose: 6.25 mg/kg/injection, schedule: Q01DX005 (ip), vehicle: water 152 % of control | endpoint: median survival time, dose: 6.25 mg/kg/injection, schedule: Q01DX009 (ip), vehicle: water 216 % of control | endpoint: median survival time, dose: 7.5 mg/kg/injection, schedule: Q01DX005 (ip), vehicle: water 164 % of control | endpoint: median survival time, dose: 12.5 mg/kg/injection, schedule: Q01DX005 (ip), vehicle: water 180 % of control | endpoint: median survival time, dose: 20.83 mg/kg/injection, schedule: Q01DX005 (ip), vehicle: water 225 % of control
inactive: endpoint: median survival time, dose: 12.5 mg/kg/injection, schedule: Q01DX009 (ip), vehicle: water 113 % of control | endpoint: median survival time, dose: 25.0 mg/kg/injection, schedule: Q01DX005 (ip), vehicle: water 109 % of control | endpoint: median survival time, dose: 34.72 mg/kg/injection, schedule: Q01DX005 (ip), vehicle: water 107 % of control | endpoint: median survival time, dose: 50.0 mg/kg/injection, schedule: Q01DX005 (ip), vehicle: water 92 % of control and 94 % of control | endpoint: median survival time, dose: 50.0 mg/kg/injection, schedule: Q01DX009 (ip), vehicle: water 116 % of control

NC(CCCCNC(c1ccccc1)(c1ccccc1)c1ccccc1)C(=O)O (configuration not stated)
inactive: endpoint: mean survival time, dose: 25.0 mg/kg/injection, schedule: Q01DX009 (ip), vehicle: saline 96 % of control | endpoint: mean survival time, dose: 50.0 mg/kg/injection, schedule: Q01DX009 (ip), vehicle: saline 94 % of control | endpoint: mean survival time, dose: 100.0 mg/kg/injection, schedule: Q01DX009 (ip), vehicle: saline 103 % of control

NC(=O)OCCc1c2ccccc2[n+]([O-])c2ccccc12
inactive: endpoint: mean survival time, dose: 50.0 mg/kg/injection, schedule: Q04DX002 (ip), vehicle: saline with Tween-80 98 % of control | endpoint: mean survival time, dose: 100.0 mg/kg/injection, schedule: Q04DX002 (ip), vehicle: saline with Tween-80 95 % of control | endpoint: mean survival time, dose: 200.0 mg/kg/injection, schedule: Q04DX002 (ip), vehicle: saline with Tween-80 98 % of control | endpoint: mean survival time, dose: 400.0 mg/kg/injection, schedule: Q04DX002 (ip), vehicle: saline with Tween-80 95 % of control

Cn1c(=O)[nH]c2c(nc(-c3ccccc3)n2Cc2ccccc2)c1=O
inactive: endpoint: mean survival time, dose: 7.8 mg/kg/injection, schedule: Q01DX005 (ip), vehicle: other 95 % of control | endpoint: mean survival time, dose: 15.6 mg/kg/injection, schedule: Q01DX005 (ip), vehicle: other 95 % of control | endpoint: mean survival time, dose: 31.3 mg/kg/injection, schedule: Q01DX005 (ip), vehicle: other 91 % of control | endpoint: mean survival time, dose: 62.5 mg/kg/injection, schedule: Q01DX005 (ip), vehicle: other 91 % of control | endpoint: mean survival time, dose: 125.0 mg/kg/injection, schedule: Q01DX005 (ip), vehicle: other 95 % of control

CCCCCCCCCCCC1=NC(CO)(CO)CO1
inactive: endpoint: mean survival time, dose: 100.0 mg/kg/injection, schedule: Q01DX009 (ip), vehicle: saline with Tween-80 96 % of control | endpoint: mean survival time, dose: 200.0 mg/kg/injection, schedule: Q01DX009 (ip), vehicle: saline with Tween-80 90 % of control | endpoint: mean survival time, dose: 400.0 mg/kg/injection, schedule: Q01DX009 (ip), vehicle: saline with Tween-80 93 % of control

CC1(C)OC2C(CO)OC(NC3=C(C#N)CCCC3)C2O1 (configuration not stated)
inactive: endpoint: mean survival time, dose: 12.5 mg/kg/injection, schedule: Q01DX005 (ip), vehicle: other 103 % of control | endpoint: mean survival time, dose: 25.0 mg/kg/injection, schedule: Q01DX005 (ip), vehicle: other 105 % of control | endpoint: mean survival time, dose: 50.0 mg/kg/injection, schedule: Q01DX005 (ip), vehicle: other 103 % of control | endpoint: mean survival time, dose: 100.0 mg/kg/injection, schedule: Q01DX005 (ip), vehicle: other 97 % of control | endpoint: mean survival time, dose: 200.0 mg/kg/injection, schedule: Q01DX005 (ip), vehicle: other 103 % of control

Cn1c(=O)c2c(ncn2CC(=O)NNC(=S)Nc2ccccc2)n(C)c1=O
inactive: endpoint: mean survival time, dose: 12.5 mg/kg/injection, schedule: Q01DX005 (ip), vehicle: distilled water + Tween-80 121 % of control | endpoint: mean survival time, dose: 25.0 mg/kg/injection, schedule: Q01DX005 (ip), vehicle: distilled water + Tween-80 121 % of control | endpoint: mean survival time, dose: 50.0 mg/kg/injection, schedule: Q01DX005 (ip), vehicle: distilled water + Tween-80 93 % of control | endpoint: mean survival time, dose: 100.0 mg/kg/injection, schedule: Q01DX005 (ip), vehicle: distilled water + Tween-80 106 % of control | endpoint: mean survival time, dose: 200.0 mg/kg/injection, schedule: Q01DX005 (ip), vehicle: distilled water + Tween-80 93 % of control

c1ccc(CCc2ccccc2)cc1
inactive: endpoint: mean survival time, dose: 25.0 mg/kg/injection, schedule: Q04DX003 (ip), vehicle: saline with Tween-80 100 % of control | endpoint: mean survival time, dose: 50.0 mg/kg/injection, schedule: Q04DX003 (ip), vehicle: saline with Tween-80 103 % of control | endpoint: mean survival time, dose: 100.0 mg/kg/injection, schedule: Q01DX001 (ip), vehicle: saline with Tween-80 100 % of control | endpoint: mean survival time, dose: 100.0 mg/kg/injection, schedule: Q04DX003 (ip), vehicle: saline with Tween-80 104 % of control and 105 % of control | endpoint: mean survival time, dose: 200.0 mg/kg/injection, schedule: Q01DX001 (ip), vehicle: saline with Tween-80 103 % of control | endpoint: mean survival time, dose: 200.0 mg/kg/injection, schedule: Q04DX003 (ip), vehicle: saline with Tween-80 101 % of control | endpoint: mean survival time, dose: 400.0 mg/kg/injection, schedule: Q01DX001 (ip), vehicle: saline with Tween-80 91 % of control | endpoint: mean survival time, dose: 400.0 mg/kg/injection, schedule: Q04DX003 (ip), vehicle: saline with Tween-80 107 % of control
